Assay results published in article PMC9558223, “Staphylococcus aureus is able to generate resistance to novel lipoglycopeptide antibiotic gausemycin A” (Frontiers in Microbiology, 2022).

Tests used:
[1] = test system: Staphylococcus aureus 5812R; test: ID32 Staph strip, resistance (novobiocin); format: cell-based; conditions: colorimetric test
Protocol: (§1) The biochemical properties were assayed using the ID32 Staph strip (BioMerieux, France), which consists of a set of wells containing dried biochemical media for colorimetric tests.

[2] = test system: Staphylococcus aureus FDA209 P; test: ID32 Staph strip, resistance (novobiocin); format: cell-based; conditions: colorimetric test
Protocol: as §1

S. aureus 5812R [3] = test: Resistance stability testing (passaging in drug-free medium); format: cell-based, Staphylococcus aureus; conditions: 17 passages in gausemycin A-free Muller-Hinton broth
Protocol: The overnight culture of S. aureus 5812R was sub-cultured in gausemycin A-free Muller-Hinton broth and incubated overnight at 37°C with shaking. The obtained culture was evaluated on susceptibility to gausemycin A in the MIC assay as described previously. Passaging in the drug-free medium was repeated 17 times. The experiments were performed in two independent series on separate days with three technical replicates each.

S. aureus 5812R [4] = test: Membrane integrity assay (SYTO 9 / propidium iodide); format: cell-based, Staphylococcus aureus; conditions: 10 mM HEPES, 1.25 mM Ca2+, 10^8 CFU/ml, end-point 10 min
Protocol: (§2) Membrane integrity was assessed using the fluorescent probes SYTO 9 and propidium iodide (PI) (LIVE/DEAD BacLight Bacterial Viability Kit, Molecular Probes, USA). The test strains were grown to the mid-log phase. The obtained cultures were centrifuged at 10,000 rpm for 10 min, the supernatant was discarded and the pellet was dispersed in 10 mM HEPES buffer supplemented with 1.25 mM Ca ^2+ to an optical density of 0.2 (OD 600) that corresponded to 10^8 CFU/ml. Bacterial cells in 50 μl were transferred to a 96-well microtiter plate (Eppendorf, US). SYTO 9 fluorescence kinetics was measured using Fluoroscan Ascent FL plate reader (Thermo Scientific, US) at 485 nm excitation and 535 nm of emission wavelengths as described earlier (Vasilchenko et al., [2020]). The assay was performed twice in three technical replicates.
(§3) Microscopy was performed using a Zeiss Axio Imager A2 fluorescent microscope (Carl Zeiss, Germany) equipped with filter sets useful for simultaneous viewing of SYTO 9 and PI stains.

S. aureus FDA209P [5] = test: as above; format: cell-based, Staphylococcus aureus; conditions: 10 mM HEPES, 1.25 mM Ca2+, 10^8 CFU/ml, end-point 10 min
Protocol: as §2, §3

S. aureus 5812R [6] = test: microbe, parasite or virus in culture; format: cell-based, Staphylococcus aureus
Protocol: (§4) Minimal inhibitory concentration (MIC) was determined as previously described in Fuchs et al. ([2000]), following the Clinical and Laboratory Standards Institute (CLSI) guidelines for broth microdilution MIC assay. The bacteria were incubated in a 96-well microtiter plate (Eppendorf, Germany) containing 90 μL of inoculum prepared in growth media at 10^6 CFU/ml with 10 μL of twofold dilutions of the antibiotics. The results were evaluated after 24 h of cultivation at 37 °C. The bacterial growth was assessed by scanning the absorbance data at 600 nm obtained by spectrophotometer (Multiscan GO, Thermo Fisher Scientific, US).

S. aureus FDA209P [7] = test: microbe, parasite or virus in culture; format: cell-based, Staphylococcus aureus; conditions: broth microdilution (CLSI), 10^6 CFU/ml, 24 h, 37 °C, absorbance at 600 nm
Protocol: as §4

S. aureus FDA209P [8] = test: Serial passaging in increasing concentrations of antimicrobials; format: cell-based, Staphylococcus aureus; conditions: for The highest concentration of antibiotic allowing growth: Mueller-Hinton II broth (CaCl2 50 mg/L), 37 °C, 24 h
Protocol: Gausemycin A-resistant variant was obtained by serial passaging as described previously (Pollard et al., [2012]). Isolated colonies of S. aureus FDA209P were inoculated into Mueller-Hinton II broth (CaCl2 50 mg/L) containing twofold dilutions of gausemycin A. The cultures were incubated at 37 °C with aeration for 24 h. After incubation, bacterial cells growing at the highest concentration of gausemycin A (below the MIC) were harvested and used for the next passage. The process was repeated for 20 passages. The dynamic of the developing resistance to gausemycin A was evaluated in comparison with daptomycin and ramoplanin. The experiments were performed in two independent series on separate days with three technical replicates each.

[9] = test system: biofilm-embedded staphylococcal cells; conditions: ref Vasilchenko et al., 2020; cited from earlier work
From the text: These lipoglycopeptides were firstly described in 2016 (Lapchinskaya et al., [2016]), and consequently named gausemycins A and B (Tyurin et al., [2021]). Gausemycin A is a macrocyclic peptide containing 14 amino acids, where tyrosine is glycosylated with arabinose, which makes gausemycin A unique among natural peptide antibiotics (Tyurin et al., [2021]). The closest structurally related compounds are depsipeptides (daptomycin, taromycins, and cadazides) and cyclopeptides ( ...

With CO[C@@H]1[C@@H](OC(N)=O)[C@@H](O)[C@H](Oc2ccc3c(O)c(NC(=O)c4ccc(O)c(CC=C(C)C)c4)c(=O)oc3c2C)OC1(C)C [novobiocin] the “Resistance (Novobiocin)” value [1] was “Positive” and the “Resistance (Novobiocin)” value [2] was “Positive”.

With Gausemycin A the “Stability of resistance (MIC after passaging in drug-free medium)” value (S. aureus 5812R [3]) was “did not change the MIC value”, the “Quenching of SYTO9 fluorescence” value (S. aureus 5812R [4]) was “not achieved at all taken concentrations” and the “Concentration giving complete quenching of SYTO9 fluorescence” value (S. aureus FDA209P [5]) was 50 µg/mL. The MIC (S. aureus 5812R [6]; S. aureus 5812R, broth microdilution (CLSI), 10^6 CFU/ml, 24 h, 37 °C, absorbance at 600 nm) was over 200 µg/mL, the “Change of MIC / resistance of S. aureus 5812R compared to parent strain S. aureus FDA209P” value (S. aureus 5812R [6]; ratio of MIC for 5812R and FDA209P) was 80 fold and the MIC (S. aureus FDA209P [7]) was 2.5 µg/mL. The “The highest concentration of antibiotic allowing growth” value (from here on “The highest concentration”) (S. aureus FDA209P [8]; passage 1) was 2.5 µg/mL, the “The highest concentration” value (S. aureus FDA209P [8]; passage 2) was 2.5 µg/mL and the “The highest concentration” value (S. aureus FDA209P [8]; passage 3) was 5 µg/mL. The “The highest concentration” value (S. aureus FDA209P [8]; passage 4) was 5 µg/mL, the “The highest concentration” value (S. aureus FDA209P [8]; passage 5) was 5 µg/mL and the “The highest concentration” value (S. aureus FDA209P [8]; passage 6) was 5 µg/mL. The “The highest concentration” value (S. aureus FDA209P [8]; passage 7) was 5 µg/mL, the “The highest concentration” value (S. aureus FDA209P [8]; passage 8) was 10 µg/mL and the “The highest concentration” value (S. aureus FDA209P [8]; passage 9) was 20 µg/mL. For the same molecule, the “The highest concentration” value (S. aureus FDA209P [8]; passage 10) was 40 µg/mL, the “The highest concentration” value (S. aureus FDA209P [8]; passage 11) was 40 µg/mL and the “The highest concentration” value (S. aureus FDA209P [8]; passage 12) was 40 µg/mL. For the same molecule, the “The highest concentration” value (S. aureus FDA209P [8]; passage 13) was 50 µg/mL, the “The highest concentration” value (S. aureus FDA209P [8]; passage 14) was 100 µg/mL and the “The highest concentration” value (S. aureus FDA209P [8]; passage 15) was 100 µg/mL. For the same molecule, the “The highest concentration” value (S. aureus FDA209P [8]; passage 16) was 100 µg/mL, the “The highest concentration” value (S. aureus FDA209P [8]; passage 17) was 150 µg/mL and the “The highest concentration” value (S. aureus FDA209P [8]; passage 18) was 200 µg/mL. The “The highest concentration” value (S. aureus FDA209P [8]; passage 19) was 200 µg/mL, the “The highest concentration” value (S. aureus FDA209P [8]; passage 20) was over 200 µg/mL and the “Number of passages within which resistance was formed” value (S. aureus FDA209P [8]; serial passages with sub-inhibitory concentrations) was at most 20 passages. The “Inhibition of biofilm-embedded staphylococcal cells” value [9] was “able to inhibit”.
